Measurements taken from the supplement of paper PMC10307832.

How the values were obtained:
Assay in all cases: relative viability (nuclei count vs DMSO), 5 days (fraction); higher = more cells survive
[1] = compound: Cc1cnc(CNC(=O)c2c(=O)c3ccc(N4CCCN(C)CC4)nc3n3c2sc2ccccc23)cn1 [CX-5461] + Cc1nc(NC(=O)N2CCC[C@H]2C(N)=O)sc1-c1ccnc(C(C)(C)C(F)(F)F)c1 [Alpelisib] (partner 2 µM)
Summary of the method: (§1)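 A single step with final 0.05% Triton X-100, 1% formaldehyde and 1 ug/ml Hoechst fixed the cells and stained nuclei 5 days after treatment. Lung cancer cell lines in 1536-well plates had been treated by pin tool the day after seeding with one drug alone or a fixed anchor-drug dose plus five library-drug doses (not always all listed) in √10 steps, and nuclei were counted on 4× images. Relative viability is the ratio of nuclei in treated wells to nuclei in vehicle wells, taken as the median of duplicate plates.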

[2] = compound: Cc1cnc(CNC(=O)c2c(=O)c3ccc(N4CCCN(C)CC4)nc3n3c2sc2ccccc23)cn1 [CX-5461] + Cc1nc(Nc2ncc(C(=O)Nc3c(C)cccc3Cl)s2)cc(N2CCN(CCO)CC2)n1 [Dasatinib] (partner 0.075 µM)
Summary of the method: as §1

[3] = compound: O=C(Nc1cc(C(F)(F)F)cc(C(F)(F)F)c1)c1cc(Cl)ccc1O [IMD-0354] + COc1cc2c(Oc3ccc(NC(=O)C4(C(=O)Nc5ccc(F)cc5)CC4)cc3F)ccnc2cc1OCCCN1CCOCC1 [Foretinib] (partner 0.25 µM)
Summary of the method: as §1

[4] = compound: O=C(Nc1cc(C(F)(F)F)cc(C(F)(F)F)c1)c1cc(Cl)ccc1O [IMD-0354] + C[C@@H](Oc1cc(-c2cnn(C3CCNCC3)c2)cnc1N)c1c(Cl)ccc(F)c1Cl [Crizotinib] (partner 1 µM)
Summary of the method: as §1

Row | Cell Line | relative viability ([1]; first compound 0.01 µM) | relative viability ([1]; first compound 0.03162 µM) | relative viability ([1]; first compound 0.1 µM) | relative viability ([1]; first compound 0.3162 µM) | relative viability ([1]; first compound 1 µM) | relative viability ([2]; first compound 0.01 µM) | relative viability ([2]; first compound 0.03162 µM) | relative viability ([2]; first compound 0.1 µM) | relative viability ([2]; first compound 0.3162 µM) | relative viability ([2]; first compound 1 µM) | relative viability ([3]; first compound 0.04 µM) | relative viability ([3]; first compound 0.1265 µM) | relative viability ([3]; first compound 0.4 µM) | relative viability ([3]; first compound 1.265 µM) | relative viability ([3]; first compound 4 µM) | relative viability ([4]; first compound 0.04 µM) | relative viability ([4]; first compound 0.1265 µM) | relative viability ([4]; first compound 0.4 µM) | relative viability ([4]; first compound 1.265 µM) | relative viability ([4]; first compound 4 µM)
1 | NCI-H2347 | 1.11 | 1.04 | 1.07 | 0.834 | 0.994 | 0.336 | 0.295 | 0.4 | 0.333 | 0.328 | 1.11 | 0.842 | 0.523 | 0.599 | 0.513 | 0.752 | 0.654 | 0.62 | 0.395 | 0.365
2 | NCI-H2405 | 0.851 | 0.871 | 0.907 | 0.525 | 0.624 | 0.224 | 0.204 | 0.197 | 0.205 | 0.193 | 1.1 | 1.02 | 0.926 | 0.365 | 0.303 | 0.915 | 0.86 | 0.491 | 0.572 | 0.304
3 | NCI-H3122 | 0.836 | 0.951 | 0.762 | 0.773 | 0.677 | 0.821 | 0.942 | 0.828 | 0.824 | 0.346 | 0.959 | 0.964 | 0.722 | 0.779 | 0.129 | 0.298 | 0.29 | 0.281 | 0.202 | 0.167
4 | PC-3 [JPC-3] | 1.06 | 1.08 | 1.02 | 1.07 | 0.932 | 0.967 | 1.09 | 1.01 | 1.04 | 0.972 | 1.07 | 1 | 0.61 | 0.376 | 0.272 | 1.08 | 1.01 | 0.601 | 0.419 | 0.18
